Laboratory results published in patent US7998978B2 (Pfizer Inc., priority 2006, dated 2011).
pKi: −log10 of the molar value.

These compounds were tested against T1, JNK1α1 (Homo sapiens, UniProt P45983) (assay: Coupled spectrophotometric (PK/LDH) JNK1α1 assay: % inhibition and Ki determination). Details: @1 uM; read-out: % Inhibition JNK-1.
T1 construct: catalytic domain containing amino acids 1-364 and N-terminal hexahistidine tag; hexahistidine (His6) (N); made in house; host or cells: E. coli BL21 (DE3)
T1 sequence (P45983 1-364): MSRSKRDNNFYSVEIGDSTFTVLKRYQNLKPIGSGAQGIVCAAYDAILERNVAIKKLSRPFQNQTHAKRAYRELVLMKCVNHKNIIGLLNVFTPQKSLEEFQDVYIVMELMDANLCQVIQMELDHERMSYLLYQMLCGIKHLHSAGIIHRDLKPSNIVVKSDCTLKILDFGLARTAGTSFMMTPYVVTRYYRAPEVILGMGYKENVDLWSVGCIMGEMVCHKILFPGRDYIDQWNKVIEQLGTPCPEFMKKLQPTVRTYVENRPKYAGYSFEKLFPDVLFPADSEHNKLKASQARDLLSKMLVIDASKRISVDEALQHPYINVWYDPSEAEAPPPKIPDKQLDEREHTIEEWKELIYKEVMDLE
Format: biochemical
Procedure, shortened: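 Initial rates were taken from the absorbance decrease at 340 nm at 30° C. Ki was fitted with a tight-binding model over 11 concentrations (top 100 μM); single-point inhibition was tested at 1 or 10 μM.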

| inhibition at 1 µM [%] | SMILES |
| --- | --- |
| 34 | Cc1noc(C(NC(=O)c2cccc3cnc(N[C@H]4CC[C@H](O)CC4)nc23)c2ccccc2)n1 (stereo partly drawn) [Example 527, 2-[(trans-4-hydroxycyclohexyl)amino]-N-[(3-methyl-1,2,4-oxadiazol-5-yl)(phenyl)methyl]quinazoline-8-carboxamide] |
| 40 | O=C(NC1CCCOC1)c1cccc2cnc(N[C@H]3CC[C@H](O)CC3)nc12 (stereo partly drawn) [Example 488, 2-[(trans-4-hydroxycyclohexyl)amino]-N-(tetrahydro-2H-pyran-3-yl)quinazoline-8-carboxamide] |
| 15 | CC(C)Nc1ncc2ccc(C(=O)NC3(CO)CCCC3)cc2n1 [Example 423, N-[1-(hydroxymethyl)cyclopentyl]-2-(isopropylamino)quinazoline-7-carboxamide] |
| 11 | Cc1nnc(CNC(=O)c2cccc3cnc(N[C@H]4CC[C@H](O)CC4)nc23)o1 [Example 514, 2-[(trans-4-hydroxycyclohexyl)amino]-N-[(5-methyl-1,3,4-oxadiazol-2-yl)methyl]quinazoline-8-carboxamide] |
| 19 | O=C(NCCC1CCCCO1)c1cccc2cnc(N[C@H]3CC[C@H](O)CC3)nc12 (stereo partly drawn) [Example 515, 2-[(trans-4-hydroxycyclohexyl)amino]-N-[2-(tetrahydro-2H-pyran-2-yl)ethyl]quinazoline-8-carboxamide] |
| 12 | O[C@H]1CC[C@H](Nc2ncc3cccc(OCCN4CCCCC4)c3n2)CC1 [Example 255, trans-4-{[8-(2-piperidin-1-ylethoxy)quinazolin-2-yl]amino}cyclohexanol] |
| 26 | O=C(NCCn1ccccc1=O)c1cccc2cnc(N[C@H]3CC[C@H](O)CC3)nc12 [Example 528, 2-[(trans-4-hydroxycyclohexyl)amino]-N-[2-(2-oxopyridin-1(2H)-yl)ethyl]quinazoline-8-carboxamide] |
| 21 | O=C(NCc1nc(-c2ccccc2)no1)c1cccc2cnc(N[C@H]3CC[C@H](O)CC3)nc12 [Example 513, 2-[(trans-4-hydroxycyclohexyl)amino]-N-[(3-phenyl-1,2,4-oxadiazol-5-yl)methyl]quinazoline-8-carboxamide] |

Same assay, conditions: @10 uM; read-out: % Inhibition JNK-1

| inhibition at 10 µM [%] | SMILES |
| --- | --- |
| 52 | O=C(Nc1nccc2cccnc12)c1cccc2cnc(N[C@H]3CC[C@H](O)CC3)nc12 [Example 315, 2-[(trans-4-hydroxycyclohexyl)amino]-N-1,7-naphthyridin-8-ylquinazoline-8-carboxamide] |
| 63 | CC(C)(CO)NC(=O)c1ccc2cnc(NC3CCCC3)nc2c1 [Example 438, 2-(cyclopentylamino)-N-(2-hydroxy-1,1-dimethylethyl)quinazoline-7-carboxamide] |
| 31 | Cc1cc(C)nc(CNC(=O)c2cccc3cnc(N[C@H]4CC[C@H](O)CC4)nc23)n1 [Example 512, N-[(4,6-dimethylpyrimidin-2-yl)methyl]-2-[(trans-4-hydroxycyclohexyl)amino]quinazoline-8-carboxamide] |
| 62 | CN1CCC[C@H]1COc1cccc2cnc(N[C@H]3CC[C@H](O)CC3)nc12 [Example 257, trans-4-[(8-{[(2S)-1-methylpyrrolidin-2-yl]methoxy}quinazolin-2-yl)amino]cyclohexanol] |

Same assay, conditions: JNK-1

| pKi | SMILES |
| --- | --- |
| 5.89 | Cc1ccc2cnc(N[C@H]3CC[C@H](O)CC3)nc2c1OCC(=O)N1CCS(=O)(=O)CC1 [Example 214, trans-4-({8-[2-(1,1-dioxidothiomorpholin-4-yl)-2-oxoethoxyl]-7-methylquinazolin-2-yl}amino) cyclohexanol] |
| 8.52 | CC(C)c1ccc(OCC(=O)Nc2cc3cc(-c4cn[nH]c4)ccc3cn2)cc1 [Example 50, 2-(4-isopropylphenoxy)-N-[6-(1H-pyrazol-4-yl)isoquinolin-3-yl]acetamide] |
| 5.60 | CC(=O)N1CC[C@@H](NC(=O)c2ccc3cnc(N[C@H]4CC[C@H](O)CC4)nc3c2)C1 [Example 371, N-[(3R)-1-acetylpyrrolidin-3-yl]-2-[(trans-4-hydroxycyclohexyl)amino]quinazoline-7-carboxamide] |
| 6.92 | O=C(NC(CO)c1ccccn1)c1ccc2cnc(N[C@H]3CC[C@H](O)CC3)nc2c1 (stereo partly drawn) [Example 100, 2-[(trans-4-hydroxycyclohexyl)amino]-N-(2-hydroxy-1-pyridin-2-ylethyl)quinazoline-7-carboxamide] |
| 6.41 | O=C(N[C@H](CO)c1ccccc1)c1ccc2cnc(NC3CCC3)nc2c1 [Example 392, 2-(cyclobutylamino)-N-[(1S)-2-hydroxy-1-phenylethyl]quinazoline-7-carboxamide] |
| 6.42 | O=C(NCC1CCCOC1)c1ccc2cnc(N[C@H]3CC[C@H](O)CC3)nc2c1 (stereo partly drawn) [Example 92, 2-[(trans-4-hydroxycyclohexyl)amino]-N-(tetrahydro-2H-pyran-3-ylmethyl)quinazoline-7-carboxamide] |
| 5.77 | Cn1ncc(NC(=O)c2ccc3cnc(N[C@H]4CC[C@H](O)CC4)nc3c2)n1 [Example 358, 2-[(trans-4-hydroxycyclohexyl)amino]-N-(2-methyl-2H-1,2,3-triazol-4-yl)quinazoline-7-carboxamide] |
| 6.41 | CC(C)Nc1ncc2ccc(C(=O)N[C@H](CO)c3ccccc3)cc2n1 [Example 394, N-[(1S)-2-hydroxy-1-phenylethyl]-2-(isopropylamino)quinazoline-7-carboxamide] |
| 6.33 | O=C(NC1(c2ccccn2)CC1)c1cccc2cnc(N[C@H]3CC[C@H](O)CC3)nc12 [Example 462, 2-[(trans-4-hydroxycyclohexyl)amino]-N-(1-pyridin-2-ylcyclopropyl)quinazoline-8-carboxamide] |
| 7.07 | O=C(Nc1ccccn1)c1cccc2cnc(N[C@H]3CC[C@H](O)CC3)nc12 [Example 110, 2-[(trans-4-hydroxycyclohexyl)amino]-N-pyridin-2-ylquinazoline-8-carboxamide] |
| 6.68 | CC(=O)N[C@H]1CC[C@H](Nc2ncc3cccc(C(=O)N[C@@H](C)CO)c3n2)CC1 [Example 133, 2-{[trans-4-(acetylamino)cyclohexyl]amino}-N-[(1S)-2-hydroxy-1-methylethyl]quinazoline-8-carboxamide] |
| 5.74 | COc1ccnc(NC(=O)c2ccc3cnc(N[C@H]4CC[C@H](O)CC4)nc3c2)c1 [Example 361, 2-[(trans-4-hydroxycyclohexyl)amino]-N-(4-methoxypyridin-2-yl)quinazoline-7-carboxamide] |
| 6.08 | O=C(NCC1CCCO1)c1ccc2cnc(N[C@H]3CC[C@H](O)CC3)nc2c1 (stereo partly drawn) [Example 340, 2-[(trans-4-hydroxycyclohexyl)amino]-N-(tetrahydrofuran-2-ylmethyl)quinazoline-7-carboxamide] |
| 6.24 | O[C@H]1CC[C@H](Nc2ncc3cccc(O[C@H]4CCOC4)c3n2)CC1 [Example 168, trans-4-({8-[(3S)-tetrahydrofuran-3-yloxy]quinazolin-2-yl}amino)cyclohexanol] |
| 6.31 | O=C(N[C@H]1c2ccccc2C[C@H]1O)c1cccc2cnc(N[C@H]3CC[C@H](O)CC3)nc12 [Example 463, 2-[(trans-4-hydroxycyclohexyl)amino]-N-[(1S,2R)-2-hydroxy-2,3-dihydro-1H-inden-1-yl]quinazoline-8-carboxamide] |
| 6.44 | COc1cccc2cnc(N[C@H]3CC[C@H](O)CC3)nc12 [Example 150] |
| 6.31 | COc1cccc2cnc(NC3CCCCC3)nc12 [Example 149] |
| 6.31 | CNC(=O)COc1c(C)ccc2cnc(N[C@H]3CC[C@H](O)CC3)nc12 [Example 206, 2-({2-[(trans-4-hydroxycyclohexyl)amino]-7-methylquinazolin-8-yl}oxy) N-methylacetamide] |
| 7.74 | O=C(NC(CO)c1ccccc1Cl)c1ccc2cnc(N[C@H]3CC[C@H](O)CC3)nc2c1 (stereo partly drawn) [Example 99, N-[1-(2-chlorophenyl)-2-hydroxyethyl]-2-[(trans-4-hydroxycyclohexyl)amino]quinazoline-7-carboxamide] |
| 5.83 | CC(C)Nc1ncc2ccc(C(=O)N[C@H](CO)Cc3ccccc3)cc2n1 [Example 415, N-((1S)-1-benzyl-2-hydroxyethyl]2-(isopropylamino)quinazoline-7-carboxamide] |
| 7.11 | NCCOc1ccc(-c2cccc3cnc(N[C@H]4CC[C@H](O)CC4)nc23)cc1 [Example 202, trans-4-({8-[4-(2-aminoethoxy)phenyl]quinazolin-2-yl}amino) cyclohexanol] |
| 5.96 | CC(C)(CO)NC(=O)c1ccc2cnc(N[C@H]3CC[C@H](O)CC3)nc2c1 [Example 352, 2-[(trans-4-hydroxycyclohexyl)amino]-N-(2-hydroxy-1,1-dimethylethyl)quinazoline-7-carboxamide] |
| 6.96 | CC(C)[C@@H](CO)NC(=O)c1cccc2cnc(N[C@H]3CC[C@H](O)CC3)nc12 [Example 445, 2-[(trans-4-hydroxycyclohexyl)amino]-N-[(1S)-1-(hydroxymethyl)-2-methylpropyl]quinazoline-8-carboxamide] |
| 8.10 | O=C(CNC(=O)C1(c2ccccc2)CC1)Nc1cc2cc(-c3cn[nH]c3)ccc2cn1 [Example 35, N-(2-oxo-2-{[6-(1H-pyrazol-4-yl)isoquinolin-3-yl]amino)ethyl)-1-phenylcyclopropanecarboxamide] |
| 5.47 | c1cc(CNc2cc3cc(-c4cn[nH]c4)ccc3cn2)cc(-n2cccn2)c1 [Example 224, 6-(1H-pyrazol-4-yl)-N-[3-(1H-pyrazol-1-yl)benzyl]isoquinolin-3-amine] |
| 6.83 | O=C(NC1CCc2ccccc21)c1ccc2cnc(N[C@H]3CC[C@H](O)CC3)nc2c1 (stereo partly drawn) [Example 94, N-(2,3-dihydro-1H-inden-1-yl)-2-[(trans-4-hydroxycyclohexyl)amino]quinazoline-7-carboxamide] |
| 6.64 | O=C(NC1CCCC1)c1cccc2cnc(N[C@H]3CC[C@H](O)CC3)nc12 [Example 115, N-cyclopentyl-2-[(trans-4-hydroxycyclohexyl)amino]quinazoline-8-carboxamide] |
